The record followed here is the supplement of paper PMC10307832.

Test in all cases: relative viability (nuclei count vs DMSO), 5 days (fraction); higher = more cells survive
Compound in assay [1]: CN(C)CC1=CC(=CC=C1)N=C(C2=CC=CC=C2)C3=C(NC4=C3C=CC(=C4)C(=O)N(C)C)O + CC(C)C[C@H](NC(=O)[C@H](Cc1ccccc1)NC(=O)c1cnccn1)B(O)O [Bortezomib] (partner 0.002 µM)
Put shortly:
(§1)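 Values are medians from duplicate plates. Each reflects relative viability, defined as the nuclei count of treated wells over that of vehicle wells. Lung cancer cell lines in 1536-well plates were pin-tool dosed one day after seeding with one drug alone or with a fixed anchor-drug dose plus five library-drug doses (not always all listed) in √10 steps, then fixed, stained and imaged at 4× after 5 days.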

Compound in assay [2]: CN(C)CC1=CC(=CC=C1)N=C(C2=CC=CC=C2)C3=C(NC4=C3C=CC(=C4)C(=O)N(C)C)O + Cc1nc(NC(=O)N2CCC[C@H]2C(N)=O)sc1-c1ccnc(C(C)(C)C(F)(F)F)c1 [Alpelisib] (partner 2 µM)
Summed up:
as §1

Compound in assay [3]: CN(C)CC1=CC(=CC=C1)N=C(C2=CC=CC=C2)C3=C(NC4=C3C=CC(=C4)C(=O)N(C)C)O + O=C(c1cc(Cc2n[nH]c(=O)c3ccccc23)ccc1F)N1CCN(C(=O)C2CC2)CC1 [Olaparib] (partner 8 µM)
Summed up: as §1

Compound in assay [4]: CN(C)CC1=CC(=CC=C1)N=C(C2=CC=CC=C2)C3=C(NC4=C3C=CC(=C4)C(=O)N(C)C)O + Nc1nc2[nH]cc(CCc3ccc(C(=O)N[C@@H](CCC(=O)O)C(=O)O)cc3)c2c(=O)[nH]1 [Pemetrexed] (partner 0.2 µM)
Summed up:
as §1

As to NCI-H1355, the relative viability in assay [1] (first compound 0.08 µM) came out at 1.24; in assay [1] (first compound 0.253 µM), 1.26; in assay [1] (first compound 0.8 µM), 1.11; in assay [1] (first compound 2.53 µM), 1.28; in assay [1] (first compound 8 µM), 1.08; in assay [2] (first compound 0.08 µM) it was 0.802. Besides, the relative viability is 0.724 in assay [2] (first compound 0.253 µM); 0.681 in assay [2] (first compound 0.8 µM); 0.838 in assay [2] (first compound 2.53 µM); 0.849 in assay [2] (first compound 8 µM); 0.771 in assay [3] (first compound 0.08 µM); 0.707 in assay [3] (first compound 0.253 µM). Besides, the relative viability in assay [3] (first compound 0.8 µM) was 0.772; in assay [3] (first compound 2.53 µM), 0.752; in assay [3] (first compound 8 µM), 0.732; in assay [4] (first compound 0.08 µM), 1.03; in assay [4] (first compound 0.253 µM), 0.991; in assay [4] (first compound 0.8 µM) it was 0.926. In addition, the results for the relative viability in assay [4] (first compound 2.53 µM) and in assay [4] (first compound 8 µM) were 0.949 and 1.02, respectively.
On to NCI-H1437, for which the relative viability came out at 0.462 in assay [1] (first compound 0.08 µM); 0.63 in assay [1] (first compound 0.253 µM); 0.615 in assay [1] (first compound 0.8 µM); 0.482 in assay [1] (first compound 2.53 µM); 0.56 in assay [1] (first compound 8 µM); 1.01 in assay [2] (first compound 0.08 µM). Besides, the relative viability in assay [2] (first compound 0.253 µM) was determined as 0.996; in assay [2] (first compound 0.8 µM), 0.951; in assay [2] (first compound 2.53 µM), 0.906; in assay [2] (first compound 8 µM), 0.971; in assay [3] (first compound 0.08 µM), 0.621; in assay [3] (first compound 0.253 µM) it was 0.659. For the same cell line, the relative viability in assay [3] (first compound 0.8 µM) stood at 0.634; in assay [3] (first compound 2.53 µM), 0.622; in assay [3] (first compound 8 µM), 0.635; in assay [4] (first compound 0.08 µM), 0.297; in assay [4] (first compound 0.253 µM) it was 0.294; in assay [4] (first compound 0.8 µM), 0.287. Moreover, the results for the relative viability in assay [4] (first compound 2.53 µM) and in assay [4] (first compound 8 µM) were 0.283 and 0.285, respectively.
On to NCI-H1651, for which the relative viability was found to be 0.959 in assay [1] (first compound 0.08 µM); 0.984 in assay [1] (first compound 0.253 µM); 0.957 in assay [1] (first compound 0.8 µM); 0.794 in assay [1] (first compound 2.53 µM); 0.932 in assay [1] (first compound 8 µM); 1.05 in assay [2] (first compound 0.08 µM). Also, the relative viability amounted to 0.985 in assay [2] (first compound 0.253 µM); 1.03 in assay [2] (first compound 0.8 µM); 0.807 in assay [2] (first compound 2.53 µM); 0.826 in assay [2] (first compound 8 µM); 0.19 in assay [3] (first compound 0.08 µM); 0.203 in assay [3] (first compound 0.253 µM). Moreover, the relative viability came to 0.195 in assay [3] (first compound 0.8 µM); 0.188 in assay [3] (first compound 2.53 µM); 0.181 in assay [3] (first compound 8 µM); 0.565 in assay [4] (first compound 0.08 µM); 0.564 in assay [4] (first compound 0.253 µM); 0.639 in assay [4] (first compound 0.8 µM). Moreover, the values for the relative viability in assay [4] (first compound 2.53 µM) and in assay [4] (first compound 8 µM) were 0.558 and 0.668, respectively.
As to NCI-H1666, the relative viability in assay [1] (first compound 0.08 µM) was found to be 0.865; in assay [1] (first compound 0.253 µM) it was 0.945; in assay [1] (first compound 0.8 µM), 0.989; in assay [1] (first compound 2.53 µM), 0.976; in assay [1] (first compound 8 µM), 0.816; in assay [2] (first compound 0.08 µM), 1.07. The relative viability in assay [2] (first compound 0.253 µM) was 0.98; in assay [2] (first compound 0.8 µM), 1.01; in assay [2] (first compound 2.53 µM), 1.18; in assay [2] (first compound 8 µM), 0.946; in assay [3] (first compound 0.08 µM), 0.763; in assay [3] (first compound 0.253 µM) it was 0.761. Further, the relative viability turned out to be 0.785 in assay [3] (first compound 0.8 µM); 0.754 in assay [3] (first compound 2.53 µM); 0.797 in assay [3] (first compound 8 µM); 0.774 in assay [4] (first compound 0.08 µM); 0.909 in assay [4] (first compound 0.253 µM); 0.825 in assay [4] (first compound 0.8 µM). In addition, the relative viability in assay [4] (first compound 2.53 µM) is 0.886; in assay [4] (first compound 8 µM), 1.01.
For NCI-H1734, the relative viability in assay [1] (first compound 0.08 µM) came out at 0.954; in assay [1] (first compound 0.253 µM), 0.868; in assay [1] (first compound 0.8 µM) it was 0.92; in assay [1] (first compound 2.53 µM), 0.815; in assay [1] (first compound 8 µM), 0.78; in assay [2] (first compound 0.08 µM), 0.624. Further, the relative viability in assay [2] (first compound 0.253 µM) was found to be 0.71; in assay [2] (first compound 0.8 µM), 0.643; in assay [2] (first compound 2.53 µM), 0.693; in assay [2] (first compound 8 µM), 0.5; in assay [3] (first compound 0.08 µM), 0.547; in assay [3] (first compound 0.253 µM), 0.611. Also, the relative viability was 0.672 in assay [3] (first compound 0.8 µM); 0.633 in assay [3] (first compound 2.53 µM); 0.515 in assay [3] (first compound 8 µM); 0.405 in assay [4] (first compound 0.08 µM); 0.441 in assay [4] (first compound 0.253 µM); 0.436 in assay [4] (first compound 0.8 µM). The relative viability in assay [4] (first compound 2.53 µM) came to 0.398; in assay [4] (first compound 8 µM), 0.436.
Consider NCI-H1755, for which the relative viability in assay [1] (first compound 0.08 µM) came out at 0.888; in assay [1] (first compound 0.253 µM), 0.932; in assay [1] (first compound 0.8 µM), 0.93; in assay [1] (first compound 2.53 µM), 0.817; in assay [1] (first compound 8 µM), 0.972; in assay [2] (first compound 0.08 µM) it was 0.903. Besides, the relative viability in assay [2] (first compound 0.253 µM) is 0.91; in assay [2] (first compound 0.8 µM) it was 0.916; in assay [2] (first compound 2.53 µM) it was 0.867; in assay [2] (first compound 8 µM), 0.853; in assay [3] (first compound 0.08 µM), 0.835; in assay [3] (first compound 0.253 µM) it was 0.898. The relative viability is 0.923 in assay [3] (first compound 0.8 µM); 0.825 in assay [3] (first compound 2.53 µM); 0.794 in assay [3] (first compound 8 µM); 0.351 in assay [4] (first compound 0.08 µM); 0.404 in assay [4] (first compound 0.253 µM); 0.371 in assay [4] (first compound 0.8 µM). Also, the relative viability was 0.364 in assay [4] (first compound 2.53 µM) and 0.423 in assay [4] (first compound 8 µM).
For the cell line NCI-H1792, the relative viability was found to be 0.641 in assay [1] (first compound 0.08 µM); 0.911 in assay [1] (first compound 0.253 µM); 0.906 in assay [1] (first compound 0.8 µM); 0.933 in assay [1] (first compound 2.53 µM); 0.911 in assay [1] (first compound 8 µM); 0.689 in assay [2] (first compound 0.08 µM). Moreover, the relative viability in assay [2] (first compound 0.253 µM) is 0.588; in assay [2] (first compound 0.8 µM), 0.669; in assay [2] (first compound 2.53 µM), 0.644; in assay [2] (first compound 8 µM), 0.555; in assay [3] (first compound 0.08 µM) it was 0.536; in assay [3] (first compound 0.253 µM) it was 0.452. Besides, the relative viability came out at 0.479 in assay [3] (first compound 0.8 µM); 0.387 in assay [3] (first compound 2.53 µM); 0.422 in assay [3] (first compound 8 µM); 0.872 in assay [4] (first compound 0.08 µM); 0.826 in assay [4] (first compound 0.253 µM); 0.702 in assay [4] (first compound 0.8 µM). Moreover, the relative viability in assay [4] (first compound 2.53 µM) worked out at 0.673; in assay [4] (first compound 8 µM), 0.838.
